# Assay results from US4613622A, “Sebosuppressive preparations containing benzyl alcohol derivatives” (Henkel Kommanditgesellschaft auf Aktien, priority 1983, dated 1986).
# Columns and labels:
# [1] = tested on: secretion of the sebaceous glands; settings: known additives of U.S. Pat. No. 4,331,655 / German Patent Application 29 26 267; cited from earlier work
# [2] = tested on: brown skin surface lipids of the rats; assay: Rat skin browning test for antiseborrheic (sebosuppressive) effect, visual assessment of shaved back; format: in vivo, male Wistar rats; settings: topical; for Evaluation of sebosuppressive effects, evaluation method 1 (examiners recognizing the treated side) / Evaluation of sebosuppressive effects, evaluation method 2 (difference between righthand and lefthand side) / Evaluation of sebosuppressive effects, evaluation method 3 (difference in intensity of brown shades vs control animals): once daily for a total of 9 days over 14 days; for Sebum reduction: points difference / points of control group
# Text: The antiseborrheic effect was closely studied using the animal tests described in the following: The test animals were male Wistar rats having a body weight of 220 to 230 g. The degree of browning on the shaved back of the rats was visually assessed. Browning is produced by the brown skin surface lipids of the rats. This test is based on the observation that young male and female rats washed with surfactant solution or with a lipid solvent and also male rats systematically treated with oestrogen have only the normal light, pick-colored skin after shaving. At the same time, only comparatively very small quantities of lipids can be extracted from shaved hairs. In order to assess effectiveness, the test substances in solution in alcohol were each brushed onto half the back of 6 rats. The other half was only treated with the solvent minus active substances. Over the test period of 14 days, the test substances were applied once daily for a total of 9 days. A group of 6 rats which remained completely untreated was used for further control. At the end of the test, the animals were shaved on their back and sides and were visually assessed independently by an examination panel of 6 people under double blind conditions. The first criterion evaluated was whether the majority of examiners correctly recognized the treated side, differentiation being carried out as follows: The second criterion evaluated was the difference between the righthand side and the lefthand side, each examiner having to award 1 point per animal on the following basis: Significant differences between the untreated and treated sides in the second method of evaluation indicated the local effectiveness of a substance. The third criterion evaluated was the difference in intensity between the shades of brown using the following scale: In the third method of evaluation, the total point differences are compared between the untreated control animals and the treated and untreated sides of the test animals, significant differences between the control animals and the treated side of the test animals again indicating the effectiveness of a substance. There is generally also a distinct difference between the untreated and treated sides of the same test animals. However, this difference is not always as clear as that between the control animals and the treated sides, for which there may be various reasons, such as mechanical transfer of substance from one side to the other or solvent influence. The following scheme was used for differentiating the effects according to evaluation methods 2 and 3: The sebum reduction is calculated from the points difference by working out the quotient between the points difference ΔP and the number of points for the control group Pk, and expressing the value obtained in percent. [formula] The benzyl alcohol derivatives were applied in the manner described in concentrations of 0.5 and 1.0% in alcohol/acetone (1:1).
Structure (SMILES),antiseborrheic effect [1],"Evaluation of sebosuppressive effects, evaluation method 1 (examiners recognizing the treated side) ([2]; 0.5% in alcohol/acetone (1:1))","Evaluation of sebosuppressive effects, evaluation method 2 (difference between righthand and lefthand side) ([2]; 0.5% in alcohol/acetone (1:1))","Evaluation of sebosuppressive effects, evaluation method 3 (difference in intensity of brown shades vs control animals) ([2]; 0.5% in alcohol/acetone (1:1))",Sebum reduction ([2]; 0.5% in alcohol/acetone (1:1)) [%],"Evaluation of sebosuppressive effects, evaluation method 1 (examiners recognizing the treated side) ([2]; 1.0% in alcohol/acetone (1:1))","Evaluation of sebosuppressive effects, evaluation method 2 (difference between righthand and lefthand side) ([2]; 1.0% in alcohol/acetone (1:1))","Evaluation of sebosuppressive effects, evaluation method 3 (difference in intensity of brown shades vs control animals) ([2]; 1.0% in alcohol/acetone (1:1))",Sebum reduction ([2]; 1.0% in alcohol/acetone (1:1)) [%]
"CC(=O)OCC=C(C)CCC=C(C)CCC=C(C)C [3,7,11-tri:methyl-2,6,10-dodecatri:en-1-ol acetate]",only a very weak antiseborrheic effect,,,,,,,,
"CCOCC=C(C)CCC=C(C)CCC=C(C)C [3,7,11-tri:methyl-2,6,10-dodecatri:en-1-ol ethyl ether]",only a very weak antiseborrheic effect,,,,,,,,
"CCCCCCCCc1ccc(CO)cc1 [A, 4-octylbenzyl alcohol]",,++ (100%),++ (very large (≥99.9% probability)),++ (very large (≥99.9% probability)),94,,,,
"CCCCCCCCCCc1ccc(CO)cc1 [B, 4-decylbenzyl alcohol]",,++ (100%),++ (very large (≥99.9% probability)),++ (very large (≥99.9% probability)),95,,,,
OCc1ccccc1 [Benzyl alcohol],,,,,,0 (≥50%),0 (minimal (<95% probability)),0 (minimal (<95% probability)),0
"CCCCCCCCCCCCc1ccc(CO)cc1 [C, 4-dodecylbenzyl alcohol]",,++ (100%),++ (very large (≥99.9% probability)),++ (very large (≥99.9% probability)),32,,,,
"CCCCCCCCCCOCc1ccc(CO)cc1 [D, 4-decyloxymethylbenzyl alcohol]",,++ (100%),++ (very large (≥99.9% probability)),++ (very large (≥99.9% probability)),82,,,,
"OCc1ccc(-c2ccccc2)cc1 [E, 4-phenylbenzyl alcohol]",,++ (100%),++ (very large (≥99.9% probability)),++ (very large (≥99.9% probability)),72,,,,
"CC(C)(C)c1ccc(CO)cc1 [F, 4-tert.-butylbenzyl alcohol]",,,,,,++ (100%),++ (very large (≥99.9% probability)),++ (very large (≥99.9% probability)),56
